Assay results: patent publication US20160067247A1, “NOVEL USE” (GlaxoSmithKline Intellectual Property (No.2) Limited, priority 2012, published 2016)
Read-outs that look alike come from different tables or passages of the source.

Key:
[1] = system: AKT phosphorylation (Ser 473); test: FCS induced AKT phosphorylation (Ser473) in IPF primary human lung fibroblasts, MSD assay (Example 1); format: cell-based; details: Fibroblast, 0.5 h, fibroblasts from n=4 IPF lungs, 10% FCS, 30 minutes, geometric mean (95% CI 0.83-8 nM), read-out: IC50 for inhibition of FCS induced AKT phosphorylation
Experimental: Phosphorylation of AKT is widely accepted as an indication of PI3-kinase activity, and is utilised here to obtain an IC50 for the effect of 2,4-difluoro-N-{2-(methyloxy)-5-[4-(4-pyridazinyl)-6-quinolinyl]-3-pyridinyl}benzenesulfonamide on primary human lung fibroblasts isolated from the IPF patients, in addition to macrophages isolated from IPF bronchoalveolar lavage (BALF).
Fibroblasts are seeded in 96 well plates at a density of 10,000 cells per well. Following 24 hours of serum starvation, fibroblasts are pre-incubated for 15 minutes in serum free buffer containing a range of concentrations of 2,4-difluoro-N-{2-(methyloxy)-5-[4-(4-pyridazinyl)-6-quinolinyl]-3-pyridinyl}benzenesulfonamide (50 μl volumes per well, comprising 1:10 dilutions of inhibitor ranging from [3×10^−12M] to [3×10^−7M] in serum free DMEM). Fibroblasts are stimulated by the addition of foetal calf serum (FCS) to a final volume of 10%. 30 minutes after stimulation, supernatants are rapidly decanted, and the cell plate placed on ice. 35 μl of 1× Complete Lysis buffer is added to each well and incubated for 10 minutes at 4° C., and stored at −80° C. prior to further analysis. […] The assay protocol is completed as per manufacturer's instructions and plates analysed on an MSD SECTOR Imager. Data are read out as the % of total AKT phosphorylated at position Ser473.

[2] = system: AKT phosphorylation (pAKT) at position Ser473; test: FBS stimulated AKT (S473) phosphorylation in primary human lung fibroblasts, MSD assay (Example 2); format: cell-based; details: Fibroblast, 0.5 h, 20% FBS 30 minute, read-out: mean pIC50, AKT (S473) phosphorylation (converted)
Experimental: Primary human fibroblasts were isolated by explant culture from non-IPF lung tissue, obtained post mortem following sudden trauma, and IPF lung tissue obtained from the lungs of IPF patients which were removed for transplantation or biopsy. Explants were cultured in DMEM containing high glucose and sodium pyruvate (PAA laboratories, catalogue #E15-011) with penicillin/streptomycin (Sigma #P4333), amphotericin B (Sigma #A2942), L-glutamine (Gibco #25030) and 20% FBS (foetal bovine serum, Lonza, catalogue #14-801F, Lot #1SB003) at 37° C., 100% humidity, 10% CO2. Cells were designated non-IPF (UCL marked 0110 and 0610) and IPF (UCL marked 0207, 0208, 0308, 0507 and 0508) based on medical diagnosis.
Human lung primary fibroblast cell lines were cultured in DMEM containing high glucose and sodium pyruvate supplemented with L-glutamine, penicillin/streptomycin and 10% FBS (complete DMEM) at 37° C., 100% humidity, 10% CO2. Cells were split into T175 flasks (NUNC #159910) 2 to 3 days prior to assay set-up at a density which yields approximately 70-80% confluence at time of harvest for assay. Cells were harvested using 0.25% trypsin-EDTA (Gibco #25300), washed and re-suspended in complete DMEM. Cell counts were performed on the cell suspension using a Handheld Automated Cell Counter (Millipore #PHCC00000) with 60 μm sensors (Millipore #PHCC60050). […]

## COc1ncc(-c2ccc3nccc(-c4ccnnc4)c3c2)cc1NS(=O)(=O)c1ccc(F)cc1F [2,4-difluoro-N-{2-(methyloxy)-5-[4-(4-pyridazinyl)-6-quinolinyl]-3-pyridinyl}benzenesulfonamide]
[1]
  IC50: 2.58 nM
[2]; IPF fibroblasts, n=5 cell lines (+/-0.1 SEM)
  IC50: 1.58 nM
[2]; primary human non-IPF fibroblasts, n=2 lines (range 8.8-9.4)
  IC50: 0.794 nM
